These are literature values, as cited in PMC7289749 (European Journal of Medicinal Chemistry, 2020).

Where two headings read alike, the source gives them in different places.

Data set [1] deals with SARS-CoV-2. The conditions noted are these: for EC50: read-out: EC50 (half-maximal effective concentration).
The next data set deals with Vero E6 cells. The settings on record: read-out: CC50 (half-maximal cytotoxic concentration).
Data set [2] has as its system SARS-CoV-2.
For data set [3] the following is noted: in animals, relative to CQ.
For a further data set, the system named is SARS-CoV-2 Mpro. The settings on record: read-out: SARS-CoV-2 Mpro inhibitory activity IC50.
Data set [4] relates to SARS-CoV-2. The conditions noted are these: read-out: inhibition on the replication of SARS-CoV-2 EC50; dose-dependent.
Data set [5] concerns SARS-CoV-2. The conditions noted are these: human liver cancer Huh-7 cells.

In the case of `CC(=O)Oc1ccccc1C(=O)Nc1ncc([N+](=O)[O-])s1` [Nitazoxanide], the “selectivity index (SI)” value with SARS-CoV-2 [1] (CC50/EC50, Vero E6 cells) was over 16.76. The EC50 in the data set with SARS-CoV-2 [1] was 2.12 µM. The CC50 in the data set on Vero E6 cells is over 35.5 µM.

As for `O=c1c2ccccc2[se]n1-c1ccccc1` [Ebselen], in the data set on SARS-CoV-2 [2], the “anti-viral activity in cell-based assays” value is “effective anti-viral activity”.

With `CCN(CCO)CCCC(C)Nc1ccnc2cc(Cl)ccc12` (stereo not shown) [Hydroxychloroquine], in data set [3], the “less toxic than CQ” value is given as “about 40%”.

Consider `NC(=O)c1nc(F)c[nH]c1=O` [Favipiravir], for which, in the data set with Vero E6 cells, the CC50 is over 400 µM.

Regarding `O=c1cc(-c2ccccc2)oc2cc(O)c(O)c(O)c12` [Baicalein], in the data set on SARS-CoV-2 Mpro, the IC50 – broadly, the concentration that gives 50% inhibition – was […]. For the same compound, the EC50 in the data set with SARS-CoV-2 [4] was 1.69 µM.

For the compound `NC(=O)c1ncn([C@@H]2O[C@H](CO)[C@@H](O)[C@H]2O)n1` [Ribavirin], the “selectivity index (SI)” value in the data set on SARS-CoV-2 [1] (CC50/EC50, Vero E6 cells) is on record as over 3.65. Moreover, the CC50 in the data set with Vero E6 cells is over 400 µM.

As to `CCN(CC)CCCC(C)Nc1ccnc2cc(Cl)ccc12` (stereo not shown) [Chloroquine], the “selectivity index (SI)” value in the data set with SARS-CoV-2 [1] (CC50/EC50, Vero E6 cells) was over 88.50.

As for `N=C(N)Nc1ccc(C(=O)Oc2ccc3cc(C(=N)N)ccc3c2)cc1` [Nafamostat], the “selectivity index (SI)” value in the data set with SARS-CoV-2 [1] is recorded as over 4.44.

With `Nc1nc2c(ncn2CCC(CO)CO)c(=O)[nH]1` [Penciclovir], the “selectivity index (SI)” value with SARS-CoV-2 [1] (CC50/EC50, Vero E6 cells) is recorded as over 4.17. Besides, in the data set with SARS-CoV-2 [1], the EC50 was 96 µM. The CC50 with Vero E6 cells is over 400 µM.

Turning to Remdesivir, the “inhibition of virus infection” value with SARS-CoV-2 [5] was “inhibited virus infection”.
